Data taken from patent US20050112573A1, “Method of detecting toxic substance” (priority 2001, published 2005).

Test system: yeast genes (level of expressed mRNA)
Experiment: DNA chip analysis of expressed mRNA of yeast genes after 2 h culture with a toxic chemical substance
Type: cell-based, Saccharomyces cerevisiae S288C
Summary of the method: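 S. cerevisiae S288C grown at 25° C in YPD; toxicant added at log phase at growth-inhibitory, non-lethal levels for 2 h, untreated cells as control. Poly(A) mRNA reverse-transcribed with Cy3/Cy5-dUTP, hybridized to whole-genome chip at 65° C >12 h; value is fluorescence ratio versus untreated.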

## C=CC=O [(14), acrolein]
Gene YAL012W
  level of expressed mRNA in the presence of chemical substance/in its absence: 0.9
Gene YAL014C
  The level of expressed mRNA in the presence of chemical substance/absence: YAL014C: 1.8
Gene YAL017W
  The level of expressed mRNA in the presence of chemical substance/absence: YAL017W: 1.1
Gene YAL018C
  The level of expressed mRNA in the presence of chemical substance/absence: YAL018C: 1.0
Gene YAL038W
  level of expressed mRNA in the presence of chemical substance/in its absence: 0.5
Gene YAL044C
  level of expressed mRNA in the presence of chemical substance/in its absence: 1.4
Gene YAL049C
  The level of expressed mRNA in the presence of chemical substance/absence: YAL049C: 2.0
Gene YAL054C
  level of expressed mRNA in the presence of chemical substance/in its absence: 1.3
Gene YAR047C
  The level of expressed mRNA in the presence of chemical substance/absence: YAR047C: 1.3
Gene YAR064W
  The level of expressed mRNA in the presence of chemical substance/absence: YAR064W: 1.1
Gene YAR071W
  level of expressed mRNA in the presence of chemical substance/in its absence: 1.1
Gene YBL001C
  level of expressed mRNA in the presence of chemical substance/in its absence: 1.5
Gene YBL044W
  The level of expressed mRNA in the presence of chemical substance/absence: YBL044W: 0.9
Gene YBL100C
  The level of expressed mRNA in the presence of chemical substance/absence: YBL100C: 0.9
Gene YBR012C
  The level of expressed mRNA in the presence of chemical substance/absence: YBR012C: 0.9
Gene YBR013C
  The level of expressed mRNA in the presence of chemical substance/absence: YBR013C: 2.5
Gene YBR014C
  level of expressed mRNA in the presence of chemical substance/in its absence: 1.2
Gene YBR023C
  level of expressed mRNA in the presence of chemical substance/in its absence: 0.8
Gene YBR029C
  level of expressed mRNA in the presence of chemical substance/in its absence: 0.9
Gene YBR035C
  level of expressed mRNA in the presence of chemical substance/in its absence: 1.3
Gene YBR050C
  level of expressed mRNA in the presence of chemical substance/in its absence: 1.3
Gene YBR051W
  The level of expressed mRNA in the presence of chemical substance/absence: YBR051W: 1.0
Gene YBR063C
  The level of expressed mRNA in the presence of chemical substance/absence: YBR063C: 1.7
Gene YBR066C
  The level of expressed mRNA in the presence of chemical substance/absence: YBR066C: 1.1
Gene YBR068C
  level of expressed mRNA in the presence of chemical substance/in its absence: 1.8
Gene YBR111C
  level of expressed mRNA in the presence of chemical substance/in its absence: 1.6
Gene YBR124W
  The level of expressed mRNA in the presence of chemical substance/absence: YBR124W: 1.0
Gene YBR126C
  level of expressed mRNA in the presence of chemical substance/in its absence: 0.7
Gene YBR129C
  The level of expressed mRNA in the presence of chemical substance/absence: YBR129C: 1.6
Gene YBR145W
  level of expressed mRNA in the presence of chemical substance/in its absence: 2.2
Gene YBR162C
  The level of expressed mRNA in the presence of chemical substance/absence: YBR162C: 0.5
Gene YBR183W
  level of expressed mRNA in the presence of chemical substance/in its absence: 1.3
Gene YBR222C
  level of expressed mRNA in the presence of chemical substance/in its absence: 0.5
Gene YBR255W
  The level of expressed mRNA in the presence of chemical substance/absence: YBR255W: 1.1
Gene YBR281C
  The level of expressed mRNA in the presence of chemical substance/absence: YBR281C: 0.9
Gene YBR287W
  The level of expressed mRNA in the presence of chemical substance/absence: YBR287W: 0.8
Gene YBR299W
  level of expressed mRNA in the presence of chemical substance/in its absence: 1.4
Gene YCL009C
  level of expressed mRNA in the presence of chemical substance/in its absence: 0.7
Gene YCL044C
  The level of expressed mRNA in the presence of chemical substance/absence: YCL044C: 1.0
Gene YCL056C
  The level of expressed mRNA in the presence of chemical substance/absence: YCL056C: 2.2
Gene YCL064C
  level of expressed mRNA in the presence of chemical substance/in its absence: 0.8
Gene YCR007C
  The level of expressed mRNA in the presence of chemical substance/absence: YCR007C: 1.7
Gene YCR037C
  level of expressed mRNA in the presence of chemical substance/in its absence: 0.8
Gene YCR048W
  level of expressed mRNA in the presence of chemical substance/in its absence: 0.9
Gene YCR098C
  level of expressed mRNA in the presence of chemical substance/in its absence: 1.1
Gene YDL022W
  level of expressed mRNA in the presence of chemical substance/in its absence: 0.8
Gene YDL046W
  The level of expressed mRNA in the presence of chemical substance/absence: YDL046W: 1.2
Gene YDL089W
  The level of expressed mRNA in the presence of chemical substance/absence: YDL089W: 1.2
Gene YDL173W
  The level of expressed mRNA in the presence of chemical substance/absence: YDL173W: 2.1
Gene YDL193W
  The level of expressed mRNA in the presence of chemical substance/absence: YDL193W: 1.1
Gene YDL233W
  The level of expressed mRNA in the presence of chemical substance/absence: YDL233W: 1.1
Gene YDR009W
  level of expressed mRNA in the presence of chemical substance/in its absence: 1.5
Gene YDR019C
  level of expressed mRNA in the presence of chemical substance/in its absence: 1.6
Gene YDR071C
  The level of expressed mRNA in the presence of chemical substance/absence: YDR071C: 2.0
Gene YDR078C
  The level of expressed mRNA in the presence of chemical substance/absence: YDR078C: 1.8
Gene YDR090C
  The level of expressed mRNA in the presence of chemical substance/absence: YDR090C: 0.9
Gene YDR109C
  The level of expressed mRNA in the presence of chemical substance/absence: YDR109C: 1.0
Gene YDR128W
  The level of expressed mRNA in the presence of chemical substance/absence: YDR128W: 1.0
Gene YDR133C
  The level of expressed mRNA in the presence of chemical substance/absence: YDR133C: 0.6
Gene YDR140W
  The level of expressed mRNA in the presence of chemical substance/absence: YDR140W: 3.2
Gene YDR221W
  The level of expressed mRNA in the presence of chemical substance/absence: YDR221W: 1.0
Gene YDR250C
  The level of expressed mRNA in the presence of chemical substance/absence: YDR250C: 0.9
Gene YDR271C
  The level of expressed mRNA in the presence of chemical substance/absence: YDR271C: 1.4
Gene YDR278C
  The level of expressed mRNA in the presence of chemical substance/absence: YDR278C: 0.9
Gene YDR281C
  The level of expressed mRNA in the presence of chemical substance/absence: YDR281C: 1.2
Gene YDR316W
  The level of expressed mRNA in the presence of chemical substance/absence: YDR316W: 0.7
Gene YDR338C
  The level of expressed mRNA in the presence of chemical substance/absence: YDR338C: 1.0
Gene YDR366C
  The level of expressed mRNA in the presence of chemical substance/absence: YDR366C: 1.4
Gene YDR380W
  level of expressed mRNA in the presence of chemical substance/in its absence: 0.6
Gene YDR410C
  level of expressed mRNA in the presence of chemical substance/in its absence: 1.3
Gene YDR421W
  The level of expressed mRNA in the presence of chemical substance/absence: YDR421W: 1.2
Gene YDR425W
  The level of expressed mRNA in the presence of chemical substance/absence: YDR425W: 1.3
Gene YDR485C
  The level of expressed mRNA in the presence of chemical substance/absence: YDR485C: 1.1
Gene YDR487C
  level of expressed mRNA in the presence of chemical substance/in its absence: 2.5
Gene YDR502C
  level of expressed mRNA in the presence of chemical substance/in its absence: 0.8
Gene YDR504C
  The level of expressed mRNA in the presence of chemical substance/absence: YDR504C: 1.3
Gene YEL011W
  level of expressed mRNA in the presence of chemical substance/in its absence: 1.5
Gene YEL020C
  level of expressed mRNA in the presence of chemical substance/in its absence: 1.0
Gene YEL044W
  The level of expressed mRNA in the presence of chemical substance/absence: YEL044W: 0.6
Gene YER026C
  level of expressed mRNA in the presence of chemical substance/in its absence: 1.1
Gene YER069W
  level of expressed mRNA in the presence of chemical substance/in its absence: 1.3
Gene YER092W
  The level of expressed mRNA in the presence of chemical substance/absence: YER092W: 1.2
Gene YER182W
  The level of expressed mRNA in the presence of chemical substance/absence: YER182W: 1.9
Gene YFL042C
  The level of expressed mRNA in the presence of chemical substance/absence: YFL042C: 1.2
Gene YFR015C
  level of expressed mRNA in the presence of chemical substance/in its absence: 3.1
Gene YFR026C
  The level of expressed mRNA in the presence of chemical substance/absence: YFR026C: 1.0
Gene YFR056C
  The level of expressed mRNA in the presence of chemical substance/absence: YFR056C: 0.6
Gene YGL001C
  level of expressed mRNA in the presence of chemical substance/in its absence: 1.1
Gene YGL022W
  level of expressed mRNA in the presence of chemical substance/in its absence: 0.5
Gene YGL039W
  level of expressed mRNA in the presence of chemical substance/in its absence: 0.9
Gene YGL041C
  The level of expressed mRNA in the presence of chemical substance/absence: YGL041C: 1.2
Gene YGL045W
  The level of expressed mRNA in the presence of chemical substance/absence: YGL045W: 1.1
Gene YGL057C
  The level of expressed mRNA in the presence of chemical substance/absence: YGL057C: 1.5
Gene YGL088W
  The level of expressed mRNA in the presence of chemical substance/absence: YGL088W: 1.4
Gene YGL104C
  level of expressed mRNA in the presence of chemical substance/in its absence: 1.0
Gene YGL134W
  level of expressed mRNA in the presence of chemical substance/in its absence: 1.1
Gene YGL154C
  level of expressed mRNA in the presence of chemical substance/in its absence: 1.1
Gene YGL183C
  The level of expressed mRNA in the presence of chemical substance/absence: YGL183C: 1.7
Gene YGL209W
  level of expressed mRNA in the presence of chemical substance/in its absence: 1.6
Gene YGL223C
  The level of expressed mRNA in the presence of chemical substance/absence: YGL223C: 0.9
Gene YGL253W
  level of expressed mRNA in the presence of chemical substance/in its absence: 0.5
Gene YGR038W
  The level of expressed mRNA in the presence of chemical substance/absence: YGR038W: 1.4
Gene YGR060W
  level of expressed mRNA in the presence of chemical substance/in its absence: 0.8
Gene YGR139W
  The level of expressed mRNA in the presence of chemical substance/absence: YGR139W: 0.9
Gene YGR156W
  The level of expressed mRNA in the presence of chemical substance/absence: YGR156W: 1.6
Gene YGR198W
  The level of expressed mRNA in the presence of chemical substance/absence: YGR198W: 0.8
Gene YGR210C
  The level of expressed mRNA in the presence of chemical substance/absence: YGR210C: 0.8
Gene YGR211W
  The level of expressed mRNA in the presence of chemical substance/absence: YGR211W: 0.4
Gene YGR237C
  The level of expressed mRNA in the presence of chemical substance/absence: YGR237C: 0.6
Gene YGR243W
  The level of expressed mRNA in the presence of chemical substance/absence: YGR243W: 1.9
Gene YGR250C
  The level of expressed mRNA in the presence of chemical substance/absence: YGR250C: 1.3
Gene YGR266W
  The level of expressed mRNA in the presence of chemical substance/absence: YGR266W: 0.8
Gene YGR277C
  The level of expressed mRNA in the presence of chemical substance/absence: YGR277C: 1.5
Gene YGR282C
  level of expressed mRNA in the presence of chemical substance/in its absence: 1.0
